How the values were obtained:
[1] = biological target: T1, Cell division cycle 7-related protein kinase (Homo sapiens, UniProt O00311); assay: Inhibition of N-terminus Myc-tagged human CDC7 expressed in Escherichia coli by chemiluminescence assay in presence of ATP
[2] = biological target: Casein kinase II alpha/beta (Homo sapiens, UniProt P68400); assay: Inhibition of human tertrameric CK2alphabeta holoenzyme using casein as substrate after 1 to 2 hrs by chemiluminescence assay in presence of 2 uM ATP; format: protein-complex assay
[3] = biological target: Serine/threonine-protein kinase pim-1 (Homo sapiens, UniProt P11309); assay: Inhibition of N-terminus His-tagged human PIM1 expressed in Escherichia coli using AKRRRLSA as substrate after 1 to 2 hrs by chemiluminescence assay
[4] = biological target: T1, Cell division cycle 7-related protein kinase; assay: Inhibition of CDC7 in human MDA-MB-231T cells assessed as inhibition of MCM2 phosphorylation at Ser53 after 4 hrs; format: cell-based
[5] = Plasma concentration in mouse at 100 mg/kg, po measured after 1 hr; format: ADME, organism-based; set-up: dose 100 mg/kg, route oral
[6] = Plasma concentration in mouse at 100 mg/kg, po measured after 4 hrs; format: ADME, organism-based; set-up: dose 100 mg/kg, route oral

Serine/threonine-protein kinase pim-1, sequence (P11309 whole entry): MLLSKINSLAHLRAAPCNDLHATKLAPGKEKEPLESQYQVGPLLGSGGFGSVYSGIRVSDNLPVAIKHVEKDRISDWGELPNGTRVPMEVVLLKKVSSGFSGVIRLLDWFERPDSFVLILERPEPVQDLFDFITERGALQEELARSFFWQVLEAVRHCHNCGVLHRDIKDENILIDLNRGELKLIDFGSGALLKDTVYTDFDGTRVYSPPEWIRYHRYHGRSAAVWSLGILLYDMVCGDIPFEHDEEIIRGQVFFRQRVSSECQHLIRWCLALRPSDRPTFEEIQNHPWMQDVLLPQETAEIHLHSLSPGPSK
T1 sequence (O00311 whole entry): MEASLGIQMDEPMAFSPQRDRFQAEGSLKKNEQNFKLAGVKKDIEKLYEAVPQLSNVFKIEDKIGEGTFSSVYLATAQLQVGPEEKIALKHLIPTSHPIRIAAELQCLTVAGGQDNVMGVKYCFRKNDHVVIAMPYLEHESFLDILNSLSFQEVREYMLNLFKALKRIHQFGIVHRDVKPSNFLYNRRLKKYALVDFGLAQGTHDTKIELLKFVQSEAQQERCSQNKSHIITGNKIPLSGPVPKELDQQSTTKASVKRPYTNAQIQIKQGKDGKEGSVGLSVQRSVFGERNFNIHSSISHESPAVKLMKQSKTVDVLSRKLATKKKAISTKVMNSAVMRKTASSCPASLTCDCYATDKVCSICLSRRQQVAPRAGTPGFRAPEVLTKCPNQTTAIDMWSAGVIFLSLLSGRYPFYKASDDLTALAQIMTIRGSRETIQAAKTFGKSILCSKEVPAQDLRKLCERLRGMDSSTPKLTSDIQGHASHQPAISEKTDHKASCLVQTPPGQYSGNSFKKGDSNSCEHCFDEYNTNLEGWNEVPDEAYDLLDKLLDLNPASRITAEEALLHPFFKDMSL
Casein kinase II alpha/beta, sequence (P67870 whole entry): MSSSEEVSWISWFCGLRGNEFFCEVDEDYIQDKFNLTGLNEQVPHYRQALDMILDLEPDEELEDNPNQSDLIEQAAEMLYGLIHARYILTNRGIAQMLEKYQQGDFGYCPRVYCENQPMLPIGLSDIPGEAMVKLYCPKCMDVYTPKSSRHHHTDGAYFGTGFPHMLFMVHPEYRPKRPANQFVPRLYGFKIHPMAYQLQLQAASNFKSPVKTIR
Casein kinase II alpha/beta, sequence (P68400 whole entry): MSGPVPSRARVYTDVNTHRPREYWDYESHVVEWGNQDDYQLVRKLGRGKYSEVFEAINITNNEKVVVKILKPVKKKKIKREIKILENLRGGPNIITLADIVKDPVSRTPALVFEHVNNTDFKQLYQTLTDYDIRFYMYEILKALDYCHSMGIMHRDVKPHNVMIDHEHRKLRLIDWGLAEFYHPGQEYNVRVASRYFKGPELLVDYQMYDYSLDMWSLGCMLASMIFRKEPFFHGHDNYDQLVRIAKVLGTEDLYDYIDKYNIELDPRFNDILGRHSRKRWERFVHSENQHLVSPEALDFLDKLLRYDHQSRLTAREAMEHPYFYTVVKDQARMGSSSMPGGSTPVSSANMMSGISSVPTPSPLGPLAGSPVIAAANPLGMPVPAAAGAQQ

| Compound | IC50 [1] | IC50 [2] | IC50 [3] | IC50 [4] | concentration at 1 h [5] | concentration at 4 h [6] |
| --- | --- | --- | --- | --- | --- | --- |
| O=c1[nH]c(C2CCCNC2)nc2c1oc1ccc(Br)cc12 (racemic) | 15 nM | 175 nM | 39 nM | 2360 nM |  |  |
| O=c1[nH]c([C@@H]2C[C@H](F)CN2)nc2c1oc1ccc(Br)cc12 | 11 nM | 3620 nM | 11 nM | 566 nM |  |  |
| Cc1cc(-c2cc(-c3ccccc3)nc(=O)[nH]2)ccc1O |  |  |  |  | 820 nM | 310 nM |
| CC(N)c1nc2c(oc3ccc(Br)cc32)c(=O)[nH]1 (racemic) | 7.9 nM | 757 nM | 72 nM | 874 nM |  |  |
| O=c1[nH]c([C@@H]2C[C@@H](O)CN2)nc2c1oc1ccc(Br)cc12 | 9.1 nM | 418 nM | 73 nM | 440 nM |  |  |
| O=c1[nH]c(CN2CC[C@H](O)C2)nc2c1oc1ccc(Cl)cc12 | 2200 nM |  |  |  |  |  |
| COc1ccc2oc3c(=O)[nH]c(CN4CC[C@H](O)C4)nc3c2c1 | 9000 nM |  |  |  |  |  |

Further compounds by falling IC50 [1], results first:

| IC50 [1] | IC50 [2] | IC50 [3] | IC50 [4] | concentration at 1 h [5] | concentration at 4 h [6] | Compound |
| --- | --- | --- | --- | --- | --- | --- |
| 7.3 nM | 63 nM | 11 nM | 802 nM |  |  | CN1CCC[C@H]1c1nc2c(oc3ccc(Br)cc32)c(=O)[nH]1 |
| 6.1 nM | 238 nM | 77 nM | 1370 nM |  |  | COc1ccc2oc3c(=O)[nH]c([C@@H]4CCCN4)nc3c2c1 |
| 4 nM | 752 nM | 65 nM | 167 nM |  |  | O=c1[nH]c([C@@H]2C[C@@H](F)CN2)nc2c1oc1ccc(Cl)cc12 |
| 3.9 nM | 733 nM | 102 nM | 292 nM |  |  | COc1ccc2oc3c(=O)[nH]c([C@@H]4C[C@@H](F)CN4)nc3c2c1 |
